Measurements reported in PubChem BioAssay (NCI).
Several values for one entry are separate records, joined by “and”; a condition that tells them apart may be missing. Equal entries are not always repeated.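 Exposure lasted 48 hours, with cells grown in 96-well plates and compounds tested at five concentrations. GI50 = concentration required for 50% inhibition of growth. TGI denotes the concentration required for complete inhibition of growth.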

Legend:
Assay in all cases: DTP human tumour cell line panel, 48 h
DU-145 prostate = tested on: DU-145 prostate
TK-10 renal = tested on: TK-10 renal
HOP-62 NSCLC = tested on: HOP-62 NSCLC
SR leukemia = tested on: SR leukemia
SF-268 CNS = tested on: SF-268 CNS
HCT-116 colon = tested on: HCT-116 colon
SN12C renal = tested on: SN12C renal
DLD-1 colon = tested on: DLD-1 colon

SMILES	GI50 (DU-145 prostate)	TGI (DU-145 prostate)	GI50 (TK-10 renal)	TGI (TK-10 renal)	GI50 (HOP-62 NSCLC)	TGI (HOP-62 NSCLC)	GI50 (SR leukemia)	TGI (SR leukemia)	GI50 (SF-268 CNS)	TGI (SF-268 CNS)	GI50 (HCT-116 colon)	TGI (HCT-116 colon)	GI50 (SN12C renal)	TGI (SN12C renal)	TGI (DLD-1 colon)
CCNNC(=O)[C@@H]1[C@H](c2cc(OC)c(OC)c(OC)c2)c2cc3c(cc2[C@H](O)[C@H]1CO)OCO3	0.537 µM	> 100 µM	30.8 µM	> 100 µM	0.561 µM	> 100 µM	0.315 µM	> 100 µM	1.31 µM	> 100 µM	0.354 µM	> 100 µM	0.449 µM	> 100 µM	
C[C@@H](COCCC(=O)N1CCN(c2ncc(C(F)(F)F)cn2)CC1)Nc1cn[nH]c(=O)c1C(F)(F)F	37.6 µM	> 100 µM	> 100 µM	> 100 µM	23.6 µM	> 100 µM	4.04 µM	> 100 µM	42.8 µM	> 100 µM	40.3 µM	> 100 µM	31.1 µM	> 100 µM	
C=C1C(=O)OC2/C=C(\CO)CC/C=C(\CO)CC(OC(=O)C(C)C)C12 (centres undefined)		29.5 µM		15.6 µM		36.3 µM		> 52.1 µM		19.8 µM		47.9 µM		26.1 µM	
CCCCCCCCCCCCCCCCCCOc1ccccc1CC(=O)NCC[N+](C)(C)C	4.97 µM	39.2 µM	2.27 µM	6.48 µM	2.32 µM	6.9 µM	2.71 µM	> 100 µM	3.34 µM	39.9 µM	7.58 µM	> 100 µM	3.67 µM	37.9 µM	
CCOC(=O)C(C(=O)OCC)C(=O)c1ccccc1C(=O)c1ccccc1		> 100 µM		> 100 µM		> 100 µM		48.8 µM		> 100 µM		> 100 µM		> 100 µM	
CC(C)C[C@H](NC(=O)[C@@H](NC(=O)c1cccc(-c2ccccc2)n1)[C@@H](C)O)B(O)O	0.0077 µM	1.81 µM	0.00352 µM	0.0592 µM and < 0.0273 µM	0.0106 µM and < 0.0106 µM	0.0358 µM and 0.0391 µM	0.00301 µM	0.00843 µM and < 0.102 µM	0.00952 µM and 0.012 µM	0.0436 µM	0.00344 µM	0.0142 µM and 0.0127 µM	0.0151 µM and 0.0193 µM	0.413 µM	
CCOC(=O)N1C(c2ccccc2)C=CC(c2ccccc2)N1C(=O)OCC (centres undefined)				> 100 µM		> 100 µM		> 100 µM		> 100 µM		> 100 µM		> 100 µM	> 100 µM
N#Cc1nc2c(S(=O)(=O)c3ccccc3)c(N)n(Cc3ccc(Cl)cc3)c2nc1C#N	15 µM	> 50 µM	12.2 µM	26.5 µM	> 50 µM	> 50 µM	9.72 µM	> 50 µM	9.14 µM	37.6 µM	17.9 µM	> 50 µM	5.14 µM	17.6 µM	
Nc1c(C(=O)N/N=C/c2ccc(-c3cc(Cl)c(Cl)cc3Cl)o2)cnn1-c1ccnc2c(C(F)(F)F)cccc12	3.56 µM	> 100 µM	3.48 µM	> 100 µM	5.24 µM	> 100 µM	4.53 µM	72.9 µM	5.2 µM	> 100 µM	3.42 µM	> 100 µM	4.42 µM	> 100 µM	
C=C1C(OC/C=C/COC2O[C@@H]3O[C@@]4(C)CC[C@H]5[C@H](C)CC[C@@H](C2=C)[C@@]35OO4)O[C@@H]2O[C@@]3(C)CC[C@H]4[C@H](C)CC[C@@H]1[C@@]24OO3 (some centres undefined)	15.5 µM	37.6 µM	0.492 µM	16.9 µM	15.8 µM	41.5 µM	0.0315 µM	2.6 µM	5.87 µM	30.9 µM	0.0907 µM	16.6 µM	1.33 µM	46.5 µM	
O=S(=O)(NC1=NCCN1C(=S)SN1CCn2c1nsc2=S)c1ccccc1Cl	9.15 µM	53.1 µM	16.3 µM	64.2 µM	17.4 µM	33.9 µM	0.469 µM	3.31 µM	13.3 µM	87.6 µM	12.2 µM	28.2 µM	31.6 µM	> 100 µM	
NS(=O)(=O)c1ccc(-n2ncc3c(Nc4ccccc4)ncnc32)cc1	35.6 µM	> 100 µM	19.1 µM	> 100 µM	16.7 µM	48.5 µM	29.6 µM	> 100 µM	43.1 µM	> 100 µM	27.4 µM	> 100 µM	> 100 µM	> 100 µM	
COc1c(Cl)ccc2c(-c3nc4cc(Cl)c(F)cc4s3)cc(=O)oc12	13.9 µM	39.9 µM	17.4 µM	46.1 µM	6.26 µM	20.7 µM	2.2 µM	8.23 µM	2.93 µM	8.89 µM	14.1 µM	> 61.6 µM	23.2 µM	> 90.3 µM	
COc1cccc(CCC(=O)c2cc3c(N)c(C(=O)Nc4cccc(Cl)c4C)sc3nc2C)c1	1.91 µM	> 100 µM	6.46 µM	> 100 µM	1.1 µM	> 100 µM	0.431 µM	> 100 µM	0.814 µM	> 100 µM	0.448 µM	> 100 µM	0.667 µM	> 100 µM	
CCC1(NC(=O)c2cc(F)c(F)c(F)c2F)C(=O)NC(=O)N(C(C)C)C1=O (centres undefined)	33.7 µM	> 100 µM	> 100 µM	> 100 µM	58 µM	> 100 µM	2.98 µM	9.65 µM	19.1 µM	37 µM	22.5 µM	51.5 µM	26.4 µM	> 100 µM	
NC(=O)c1ccccc1NC(=O)c1ccccc1Cl	> 100 µM	> 100 µM	> 100 µM	> 100 µM	> 100 µM	> 100 µM	> 100 µM	> 100 µM	> 100 µM	> 100 µM	> 100 µM	> 100 µM	> 100 µM	> 100 µM	
COc1cc(C2CC(=O)Nc3c2ccc2ccccc32)cc(Br)c1OC (centres undefined)	0.653 µM	> 38.2 µM	13.4 µM	> 100 µM	0.753 µM	> 100 µM	0.35 µM	16.7 µM	0.933 µM	> 100 µM	0.373 µM	> 34.7 µM	1.36 µM	> 43.6 µM	

SMILES	GI50 (DU-145 prostate)	TGI (DU-145 prostate)	GI50 (TK-10 renal)	TGI (TK-10 renal)	GI50 (HOP-62 NSCLC)	TGI (HOP-62 NSCLC)	GI50 (SR leukemia)	TGI (SR leukemia)	GI50 (SF-268 CNS)	TGI (SF-268 CNS)	GI50 (HCT-116 colon)	TGI (HCT-116 colon)	GI50 (SN12C renal)	TGI (SN12C renal)	TGI (DLD-1 colon)
O=C(N/N=C/c1ccc(Cl)cc1Cl)c1ccc2nc(-c3ccc(Cl)cc3)[nH]c2c1	1.76 µM	3.44 µM	2.06 µM	4.3 µM	1.8 µM	4.1 µM	1.01 µM	3.95 µM	2.08 µM	4.35 µM	1.45 µM	3.51 µM	1.96 µM	4.26 µM	
c1ccc(B2OCC(C3OB(c4ccccc4)OC4COB(c5ccccc5)OC43)O2)cc1 (centres undefined)		> 100 µM		> 100 µM		> 100 µM		> 100 µM		> 100 µM		> 100 µM		> 100 µM	
Cc1nc2c(N3CCCC3)nc(N3CCNCC3)nc2nc1NCc1ccccc1	5.35 µM	19.4 µM and 21.3 µM		11.8 µM and 17.6 µM	5.76 µM	11.8 µM and 8.26 µM	1.53 µM	20 µM and > 20.8 µM	5.75 µM	12.2 µM and 15.1 µM	3.96 µM	13.4 µM and 11.3 µM	6.39 µM	13 µM and 19.9 µM	
Nc1nccc2c1ncn2C1OC(CO)C(O)C1O (centres undefined)	> 100 µM	> 100 µM	> 100 µM	> 100 µM	> 100 µM	> 100 µM	41.6 µM	> 100 µM	83.4 µM	> 100 µM	39.2 µM	> 100 µM	89.3 µM	> 100 µM	
Cc1ncc(C(=O)Nc2ccc(CN3CCN(C)CC3)c(C(F)(F)F)c2)cc1C#Cc1c(N)ncc2ccccc12	0.502 µM	0.997 µM	0.623 µM	1.12 µM	0.524 µM	1.4 µM	0.26 µM	1.04 µM	0.448 µM	1.09 µM	0.159 µM	0.62 µM	0.319 µM	0.783 µM	
Nc1ccc(C(OC(=O)c2cc3ccccc3c(Cc3c(O)c(C(=O)OC(c4ccc(N)cc4)(c4ccc(N)cc4)c4ccc(N)cc4)cc4ccccc34)c2O)(c2ccc(N)cc2)c2ccc(N)cc2)cc1	2.18 µM	15 µM	5.23 µM	21.3 µM	0.331 µM	14.1 µM	4.18 µM	> 100 µM	0.471 µM	18.7 µM	0.784 µM	11.4 µM	0.321 µM	59.1 µM	
CSc1ccc(SC2c3ccc(C)cc3Oc3nc(N)c(C#N)c(N)c32)cc1 (centres undefined)	1.85 µM	3.26 µM	1.96 µM	3.37 µM	1.73 µM	3.22 µM	2.54 µM	7.65 µM	1.7 µM	3.33 µM	1.92 µM	3.65 µM	1.59 µM	2.94 µM	
COc1ccc(Cn2cc3c(c2-c2cc(OC)c(OC)c(OC)c2)CCc2cnoc2-3)cc1N	0.0343 µM	0.355 µM	0.0689 µM	> 100 µM	0.0521 µM	> 100 µM	0.032 µM	1.39 µM	0.0792 µM	> 100 µM	0.045 µM	2.84 µM	0.0795 µM	> 100 µM	
Cn1cnc2c(F)c(Nc3ccc(Br)cc3F)c(C(=O)NOCCO)cc21	51.1 µM	> 100 µM	3.07 µM and 1.34 µM	> 100 µM		> 100 µM	> 47 µM	> 100 µM	> 2.05 µM and 50.5 µM	> 100 µM	0.203 µM and 0.317 µM	> 100 µM	13.7 µM	> 100 µM	
COc1cc(NC(=O)NCc2ccco2)ccc1-c1ccc(NC(=O)NCc2ccco2)cc1OC	3.01 µM	> 100 µM	1.01 µM	9.87 µM	1.94 µM	11.3 µM	0.458 µM	> 100 µM	0.98 µM	13.6 µM	0.696 µM	> 100 µM	3.17 µM	23.3 µM	
COC(=O)[C@]12CC[C@@H](C)[C@H](C)[C@@H]1C1=CC[C@@H]3[C@@]4(C)C(C=O)=C[C@@](C)(COS(C)(=O)=O)C4[C@H](O)C[C@@]3(C)[C@]1(C)CC2 (some centres undefined)	1.69 µM	3.41 µM	2 µM	4.91 µM	2.23 µM	4.45 µM	0.299 µM	1.38 µM	2 µM	4.82 µM	1.1 µM	2.57 µM	2.28 µM	6.39 µM	
Cc1ccc2nc(-c3ccc(N)c4ccccc34)[nH]c2c1	0.437 µM	24.8 µM	0.878 µM	59.6 µM	0.617 µM	4.39 µM	0.325 µM	2.09 µM		> 31.6 µM	0.04 µM	4.57 µM	0.0913 µM	19.4 µM	
CCN(CC)CCn1c2ccc(OC)cc2c2sc3cc(OC)ccc3c(=O)c21	1.67 µM	3.7 µM	2.33 µM	8.15 µM	2.32 µM	8.62 µM	0.704 µM	3.05 µM	1.87 µM	5.35 µM	0.659 µM	2.02 µM	2.03 µM	8.75 µM	
OCC(CCc1c[nH]c2ccccc12)c1c[nH]c2ccccc12 (centres undefined)		32.7 µM		37.8 µM		50.6 µM		41.5 µM		32.4 µM		29.2 µM		32.6 µM	
COC(=O)[C@H](C)NC(=O)[C@@H](OC)[C@@H]1Cc2cc3cc(OC4CC(OC5CC(O)C(O)C(C)O5)C(O)C(C)O4)c(C)c(O)c3c(O)c2C(=O)[C@H]1OC1CC(OC2CC(OC3CC(C)(O)C(O)C(C)O3)C(O)C(C)O2)C(O)C(C)O1 (some centres undefined)	0.146 µM	> 50 µM	0.336 µM	> 50 µM	0.0774 µM	> 50 µM	0.0271 µM	> 50 µM	0.092 µM	> 50 µM	0.0245 µM	> 50 µM	0.101 µM	> 50 µM	
COc1ccc(-c2cc(-c3cccc(NS(C)(=O)=O)c3)nc(N)c2C#N)cc1	0.164 µM	8.82 µM	0.278 µM	> 47.5 µM	0.0689 µM	34.6 µM	0.047 µM	25.7 µM	0.281 µM	22 µM	0.0496 µM	8.73 µM	0.298 µM	25.1 µM	
